Measured values from US11684614B2, “Formulations of hydroxypyridonate actinide/lanthanide decorporation agents” (priority 2017, dated 2023).
Values joined by “and” are separate entries in the source; they are usually repeats but may differ in a detail not shown here. Identical values can stand only once.

Assay: Repeated-treatment efficacy for removing an intravenous dose of 238Pu (excretion, tissue retention, clinical observations), female and male arms
Assay type: in vivo, Swiss-Webster mice
Settings: listed as 3,4,3-LI(1,2-HOPO)
Method: The objective of this study was to characterize the efficacy of 3,4,3-L1(1,2-HOPO) at enhancing elimination from an internal plutonium burden in female and male Swiss-Webster mice administered a soluble citrate complex of ^238Pu and treated multiple times, starting at 24 hours after the exposure. Efficacy was evaluated by comparing the tissue contents, urinary and fecal excretions of ^238Pu in treated animals versus untreated animals.
The medical countermeasure 3,4,3-L1(1,2-HOPO) was administered parenterally (ip) or orally (po) via consecutive injections or gavages (six daily or twelve twice daily) starting at 24 hours post contamination at the following four selected doses: 30 μmol/kg ip, 150 μmol/kg po, 300 μmol/kg po, and 600 μmol/kg po (equivalent to respective approximate human doses range of […], using the accepted conversion system of mouse doses into human equivalent doses—HED—based on body surface area). Oral doses also included the permeability enhancer selected during formulation development work.
• Challenge isotope: ^238Pu • Challenge dose: 25 nCi (i.e., approximately 0.8 μCi/kg) • Route of contamination: Intravenous (iv) tail-vein • Route of treatment: Intraperitoneal Injection (ip) or Oral (po) • Frequency of treatment: Multiple (once- or twice-daily for 6 days) doses, starting 24 hr postcontamination • Treatment dose calculation: Dose calculations (mg/kg or μmol/kg) for the decorporation agent were based on the individual body weight measured after contamination. • Study Duration: 11 days, in-life
c. […] Test article and control dose formulations were prepared within 1 day of dose administration, by weighing out the appropriate amount of test article, dispersing in vehicle. For ip solutions, the test article was used alone, while for oral suspensions, a mixture of test article and excipient (90:10, w:w) was used. The pH was adjusted to 7.0-7.4 for ip administration and 5.0-5.5 for oral administration with sterile NaOH. Dose formulations were prepared at room temperature and filter-sterilized. • Storage: 2-8° C.; refrigerated; protected from light. • Characterization: The concentration of each test article formulation was verified by high-performance liquid chromatography-mass spectrometry. • Test Article Handling: Test, reference, and control article formulations were handled with the use of eye protection, gloves, and a protective laboratory coat. • Correct Dose Assurance: The test article was weighed with calibrated balances. The administration of each dose formulation was properly documented, and the amount administered to each animal recorded.
e. Experimental Procedures (In-Life Evaluations and Euthanasia) • Contamination: Single administration by intravenous (iv) tail-vein injection (0.2 mL injection volume) under isoflurane anesthesia. Three standard 0.2 mL injections were performed into polyethylene bottles and pre-loaded with aliquots of concentrated nitric acid on each injection day. Six female and six male mice were culled for necropsy 1 hr post-contamination and were used as standards. A11 standards were processed and counted together with the final samples to allow verification of the contamination dose. • Dose Administration: Single administration by intraperitoneal injection (ip) or oral gavage (po) under isoflurane anesthesia. • Mortality/Morbidity: Assessed at least once daily. • Clinical Observations: Recorded once daily (4 hr post-dose on day of treatment), or more often as clinical signs warranted. […]

In the case of `O=C(NCCCN(CCCCN(CCCNC(=O)c1cccc(=O)n1O)C(=O)c1cccc(=O)n1O)C(=O)c1cccc(=O)n1O)c1cccc(=O)n1O` [3,4,3-L1(1,2-HOPO)], the “% Recovered Dose-Female Animals-Urine per Day-Day 11 Necropsy” value (animal group H, day 8, female mice) was 0.66% and 1.22% and 0.77% and 0.75% and 0.78% and 0.99% and 0.49% and 1.24%, the “% Recovered Dose-Female Animals-Urine per Day-Day 11 Necropsy” value (animal group H, day 9, female mice) was 0.40% and 0.85% and 0.75% and 0.43% and 0.47% and 0.72% and 0.37% and 0.99% and the “% Recovered Dose-Female Animals-Urine per Day-Day 11 Necropsy” value (animal group H, day 10, female mice) was 0.31% and 0.47% and 0.39% and 0.29% and 0.19% and 0.50% and 0.25% and 0.54%. For the same compound, the “% Recovered Dose-Female Animals-Urine per Day-Day 11 Necropsy” value (animal group H, day 11, female mice) was 0.25% and 0.49% and 0.32% and 0.27% and 0.37% and 0.52% and 0.29% and 0.67%, the “% Recovered Dose-Female Animals-Urine per Day-Day 11 Necropsy” value (animal group I, day 1, female mice) was 7.77% and 13.56% and 9.39% and 8.83% and 9.40% and 8.09% and 8.07% and 7.99% and the “% Recovered Dose-Female Animals-Urine per Day-Day 11 Necropsy” value (animal group I, day 3, female mice) was 5.15% and 4.91% and 4.95% and 3.52% and 6.42% and 5.63% and 7.70%. The “% Recovered Dose-Female Animals-Urine per Day-Day 11 Necropsy” value (animal group I, day 4, female mice) was 2.76% and 3.63% and 3.08% and 3.06% and 4.72% and 4.39%, the “% Recovered Dose-Female Animals-Urine per Day-Day 11 Necropsy” value (animal group I, day 5, female mice) was 2.07% and 2.10% and 1.73% and 1.67% and 1.85% and 1.81% and 1.59% and the “% Recovered Dose-Female Animals-Urine per Day-Day 11 Necropsy” value (animal group I, day 6, female mice) was 1.80% and 2.08% and 1.82% and 1.64% and 2.11% and 1.61% and 1.48%. The “% Recovered Dose-Female Animals-Urine per Day-Day 11 Necropsy” value (animal group I, day 7, female mice) was 1.20% and 1.23% and 1.07% and 1.17% and 1.43% and 1.94% and 1.45%, the “% Recovered Dose-Female Animals-Urine per Day-Day 11 Necropsy” value (animal group I, day 8, female mice) was 0.79% and 1.03% and 0.78% and 0.83% and 0.67% and 0.96% and 0.90% and the “% Recovered Dose-Female Animals-Urine per Day-Day 11 Necropsy” value (animal group I, day 9, female mice) was 0.82% and 0.67% and 0.59% and 0.61% and 0.55% and 0.69% and 0.52%. The “% Recovered Dose-Female Animals-Urine per Day-Day 11 Necropsy” value (animal group I, day 10, female mice) was 0.78% and 0.49% and 0.52% and 0.32% and 0.31% and 0.55% and 0.45%, the “% Recovered Dose-Female Animals-Urine per Day-Day 11 Necropsy” value (animal group I, day 11, female mice) was 0.67% and 0.65% and 0.58% and 0.43% and 0.46% and 0.89% and 0.44% and the “% Recovered Dose-Female Animals-Urine per Day-Day 11 Necropsy” value (animal group L, day 1, female mice) was 5.35% and 10.51% and 3.65% and 5.09% and 9.71% and 8.91% and 9.38% and 5.37%. For the same compound, the “% Recovered Dose-Female Animals-Urine per Day-Day 11 Necropsy” value (animal group L, day 2, female mice) was 9.62% and 11.11% and 5.95% and 8.55% and 8.68% and 12.54% and 10.49% and 9.01%, the “% Recovered Dose-Female Animals-Urine per Day-Day 11 Necropsy” value (animal group L, day 3, female mice) was 5.07% and 4.30% and 2.41% and 3.68% and 5.39% and 4.44% and 3.21% and 5.10% and the “% Recovered Dose-Female Animals-Urine per Day-Day 11 Necropsy” value (animal group L, day 4, female mice) was 4.52% and 3.28% and 1.82% and 3.38% and 3.96% and 3.67% and 4.12% and 5.10%. The “% Recovered Dose-Female Animals-Urine per Day-Day 11 Necropsy” value (animal group L, day 5, female mice) was 2.41% and 2.57% and 6.05% and 2.26% and 2.77% and 2.39% and 2.74% and 3.54%, the “% Recovered Dose-Female Animals-Urine per Day-Day 11 Necropsy” value (animal group L, day 6, female mice) was 1.58% and 1.95% and 4.31% and 3.12% and 2.44% and 1.42% and 1.86% and 2.87% and the “% Recovered Dose-Female Animals-Urine per Day-Day 11 Necropsy” value (animal group L, day 7, female mice) was 2.68% and 4.39% and 2.50% and 2.41% and 2.29% and 1.58% and 2.14% and 2.03%. For the same compound, the “% Recovered Dose-Female Animals-Urine per Day-Day 11 Necropsy” value (animal group L, day 8, female mice) was 2.01% and 6.27% and 1.63% and 1.89% and 1.73% and 1.02% and 1.29% and 1.12%, the “% Recovered Dose-Female Animals-Urine per Day-Day 11 Necropsy” value (animal group L, day 9, female mice) was 0.99% and 3.81% and 0.96% and 1.05% and 0.50% and 0.53% and 0.57% and the “% Recovered Dose-Female Animals-Urine per Day-Day 11 Necropsy” value (animal group L, day 10, female mice) was 1.29% and 1.70% and 0.71% and 1.04% and 0.44% and 0.60% and 0.41%. For the same compound, the “% Recovered Dose-Female Animals-Urine per Day-Day 11 Necropsy” value (animal group L, day 11, female mice) was 0.70% and 1.28% and 0.58% and 0.75% and 0.68% and 0.40% and 0.72% and 0.59%, the “% Recovered Dose-Female Animals-Urine per Day-Day 11 Necropsy” value (animal group M, day 1, female mice) was 8.44% and 9.22% and 6.58% and 5.72% and 8.33% and 7.11% and 8.76% and 7.62% and the “% Recovered Dose-Female Animals-Urine per Day-Day 11 Necropsy” value (animal group M, day 2, female mice) was 6.23% and 7.89% and 7.02% and 10.02% and 10.31% and 12.05% and 7.08% and 9.14%. The “% Recovered Dose-Female Animals-Urine per Day-Day 11 Necropsy” value (animal group M, day 3, female mice) was 2.30% and 3.50% and 4.87% and 4.65% and 3.13% and 1.94% and 3.83% and 3.56%, the “% Recovered Dose-Female Animals-Urine per Day-Day 11 Necropsy” value (animal group M, day 4, female mice) was 3.18% and 2.79% and 3.46% and 4.28% and 3.48% and 2.77% and 2.90% and 3.40% and the “% Recovered Dose-Female Animals-Urine per Day-Day 11 Necropsy” value (animal group M, day 5, female mice) was 1.90% and 2.00% and 3.07% and 4.53% and 2.38% and 1.31% and 2.10% and 2.52%. For the same compound, the “% Recovered Dose-Female Animals-Urine per Day-Day 11 Necropsy” value (animal group M, day 6, female mice) was 2.20% and 3.65% and 3.85% and 2.48% and 2.57% and 1.91% and 3.39% and 2.63%, the “% Recovered Dose-Female Animals-Urine per Day-Day 11 Necropsy” value (animal group M, day 7, female mice) was 1.09% and 4.12% and 3.24% and 1.63% and 2.05% and 0.95% and 2.29% and 2.08% and the “% Recovered Dose-Female Animals-Urine per Day-Day 11 Necropsy” value (animal group M, day 8, female mice) was 1.16% and 1.96% and 1.85% and 1.17% and 1.59% and 1.23% and 1.36% and 1.47%. The “% Recovered Dose-Female Animals-Urine per Day-Day 11 Necropsy” value (animal group M, day 9, female mice) was 0.89% and 0.80% and 0.95% and 0.56% and 0.83% and 0.91% and 1.12% and 1.20% and the “% Recovered Dose-Female Animals-Urine per Day-Day 11 Necropsy” value (animal group M, day 10, female mice) was 0.48% and 0.61% and 0.71% and 0.70% and 1.03% and 1.20% and 1.18%.
